Measured values published in patent US6596772B1, “Phosphate mimics and methods of treatment using phosphatase inhibitors” (Sugen, Inc., priority 1999, dated 2003).

What was measured:
Assay type in all cases: biochemical
PTP ZETA = molecular target: T1, PTP ZETA (Homo sapiens, UniProt P23471); test: PTP IC50 assay, pNPP or FDP as substrate; details: 25° C.
T1 construct: made in house; host or cells: E. coli BL-21 (pGEX 6P-1)
Description: (§1) The following in vitro assay procedure is preferred to determine the level of activity and effect of the different compounds of the present invention on one or more of the PTPs. Similar assays can be designed along the same lines for any PTP using techniques well known in the art.
(§2) The catalytic assays described herein are performed in a 96-well format. The general procedure begins with the determination of PTP optimal pH using a three-component buffer system that minimizes ionic strength variations across a wide range of buffer pH. Next, the Michaelis-Menten constant, or Km, is determined for each specific substrate-PTP system. This Km value is subsequently used as the substrate reaction concentration for compound screening. Finally, the test PTP is exposed to varying concentrations of compound for fifteen minutes and allowed to react with substrate for ten minutes. The results are plotted as percent inhibition versus compound concentration and the IC50 interpolated from the plot.
(§3) All assays were performed using pNPP or FDP as substrate. The optimum pH was determined for each PTP used.
(§4) PTPase activity was assayed at 25° C. in a 100-μl reaction mixture containing an appropriate concentration of pNPP or FDP as substrate. The reaction was initiated by addition of the PTP and quenched after 10 min by addition of 50 μl of IN NaOH. The non-enzymatic hydrolysis of the substrate was corrected by measuring the control without the addition of the enzyme. The amount of p-nitrophenol produced was determined from the absorbance at 410 nm. To determine the kinetic parameter, Km, the initial velocities were measured at various substrate concentrations and the data were fitted to the Michaelis equation where velocity=(Vmax*[S])/(Km+[S]), and [S]=substrate reaction concentration.
(§5) The effect of the compounds on PTP was evaluated at 25° C. using pNPP or FDP as substrate. PTP was pre-incubated for fifteen minutes with various concentrations of compound. Substrate was then added at a fixed concentration (usually equal to the Km previously calculated). After 10 minutes, NaOH was added to stop the reaction. The hydrolysis of pNPP was followed at 410 nm on the Biotek Powerwave 200 microplate scanning spectrophotometer. The percent inhibition was calculated as follows: Percent Inhibition=[(control signal−compound signal)/control signal] ×100%. The IC50 was then determined by interpolation of a percent inhibition versus compound concentration plot.
(§6) Plasmids designed for bacterial GST-PTP fusion protein expression were derived by insertion of PCR-generated human PTP fragments into pGEX vectors (Pharmacia Biotech). Several of these constructs were then used to subclone phosphatases into pFastBac-1for expression in Sf-9 insect cells. Oligonucleotides used for the initial amplification of PTP genes are shown below. The cDNAs were prepared using the Gilbo BRL superscript preamplification system on RNAs purchased from Clontech.
The PTP Zeta cDNA was amplified from human placenta single strand cDNA (Clontech RNA) using the following oligonucleotides 5′oligo: 5′-[…]-3′ (SEQ ID NO: 10) 3′oligo: 5′-[…]-3′ (SEQ ID NO: 11) and subsequently ligated into pGEX 6P-1 Eco RI/Xho I sites.

PTP PEST = molecular target: T2, PTP PEST (Homo sapiens, UniProt Q05209); test: PTP IC50 assay, pNPP or FDP as substrate; details: 25° C.
T2 construct: made in house; host or cells: E. coli BL-21 (pGEX 6P-1)
T2 sequence (Q05209 1-343 limits assumed): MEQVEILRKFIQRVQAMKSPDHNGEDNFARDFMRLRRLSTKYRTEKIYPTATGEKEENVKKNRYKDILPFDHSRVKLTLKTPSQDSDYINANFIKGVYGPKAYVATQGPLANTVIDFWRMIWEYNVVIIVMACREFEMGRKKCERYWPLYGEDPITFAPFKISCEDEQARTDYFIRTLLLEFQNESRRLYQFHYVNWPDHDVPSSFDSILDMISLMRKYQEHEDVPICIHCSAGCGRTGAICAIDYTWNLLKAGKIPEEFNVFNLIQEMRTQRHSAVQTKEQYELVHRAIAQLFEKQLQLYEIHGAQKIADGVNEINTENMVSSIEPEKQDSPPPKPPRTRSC
Description: as §1, §2, §3, §4, §5, §6
The PTP PEST CDNA was amplified from an HeLa cDNA library (Clonetech RNA) using the following oligonucleotides: 5′oligo: 5′-[…]-3′ (SEQ ID NO: 14) 3′oligo: 5′-[…]-3′ (SEQ ID NO: 15) It was subsequently ligated into the Eco RI/Xho I sites of pGEX 6P-1.

PTP ALPHA = molecular target: T3, PTP ALPHA (Homo sapiens, UniProt P18433); test: PTP IC50 assay, pNPP or FDP as substrate; details: 25° C.
T3 construct: RTPα intracellular domain construct was obtained; made in house; host or cells: E. coli BL-21 (pGEX 3X)
Description: as §1, §2, §3, §4, §5, §6
RTPα intracellular domain construct was obtained, Schlessinger et al., U.S. Pat. No. 5,888,794, the contents of which are hereby incorporated in their entirety into the present application. The RTPα fragment was cloned into pGEX 3× using the following procedure. The portion from EclX I/Xma III/Eag I (N-terminus blunted by Klenow) to Eco RV was cloned into the Sma I site. The EclX I site is approximately 15 residues downstream of the transmembrane domain.

PTP MU = molecular target: T4, PTP MU (Homo sapiens, UniProt P28827); test: PTP IC50 assay, pNPP or FDP as substrate; details: pNPP or FDP as substrate, 25° C.; read-out: PTP IC50 Mu
T4 construct: made in house; host or cells: E. coli BL-21 (pGEX 6P-1)
T4 sequence (P28827 831-1186 limits assumed): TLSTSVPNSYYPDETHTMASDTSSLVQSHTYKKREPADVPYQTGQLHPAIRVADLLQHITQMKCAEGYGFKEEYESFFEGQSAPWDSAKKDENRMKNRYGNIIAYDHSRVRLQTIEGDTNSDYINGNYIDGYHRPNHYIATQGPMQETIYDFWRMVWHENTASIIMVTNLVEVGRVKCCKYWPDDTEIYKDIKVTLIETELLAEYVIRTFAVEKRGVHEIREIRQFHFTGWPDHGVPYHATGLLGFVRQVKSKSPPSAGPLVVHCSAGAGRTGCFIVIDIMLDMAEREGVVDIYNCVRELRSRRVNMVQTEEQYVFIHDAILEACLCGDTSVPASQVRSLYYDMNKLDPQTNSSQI
Description: as §1, §2, §3, §4, §5, §6
The PTP Mu cDNA was amplified from a human lung cDNA library (Clontech) using the following oligonucleotides; 5′oligo: 5′-[…]-3′ (SEQ ID NO: 18) 3′oligo: 5′-[…]-3′ (SEQ ID NO: 19) It was subsequently ligated into the Eco RI/Xho I sites of pGEX 6P-1.

PTP DEP1 = molecular target: T5, PTP DEP1 (Homo sapiens, UniProt Q12913); test: PTP IC50 assay, pNPP or FDP as substrate; details: 25° C.
T5 construct: GST-fusion proteins encompassing the entire cytoplasmic domain was done by PCR; made in house; host or cells: E. coli BL-21 (pGEX 2T)
T5 sequence (Q12913 997-1337 limits assumed): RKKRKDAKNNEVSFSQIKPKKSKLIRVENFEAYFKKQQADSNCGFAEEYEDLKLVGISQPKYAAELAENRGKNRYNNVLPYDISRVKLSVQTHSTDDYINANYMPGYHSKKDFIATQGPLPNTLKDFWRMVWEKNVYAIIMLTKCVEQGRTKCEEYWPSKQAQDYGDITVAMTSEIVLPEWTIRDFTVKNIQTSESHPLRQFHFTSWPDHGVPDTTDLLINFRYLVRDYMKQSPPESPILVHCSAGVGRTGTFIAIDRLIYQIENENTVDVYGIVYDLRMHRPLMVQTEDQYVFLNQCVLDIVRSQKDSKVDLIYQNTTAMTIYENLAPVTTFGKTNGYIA
Description: as §1, §2, §3, §4, §5, §6
The full length DEP1 cDNA was isolated from a human mammary cDNA library (Clontech). The construction of GST-fusion proteins encompassing the entire cytoplasmic domain was done by PCR using the following oligos; 5′oligo: 5′-[…]-3′ (SEQ ID NO: 20) 3′oligo: 5′-[…]-3′ (SEQ ID NO: 21) It was subsequently ligated into the Eco RI/Bam H1 sites of pGEX 2T.

PTP SHP2 = molecular target: T6, PTP SHP2 (Homo sapiens, UniProt Q06124); test: PTP IC50 assay, fluorescent substrate DiFMUP; details: DiFMUP as substrate, 25° C.; read-out: PTP IC50 SHP2
T6 construct: The catalytic domain was amplified using the following oligonucleotides; made in house; host or cells: Sf-9 insect cells (pFastBac-G2T)
T6 sequence (Q06124 247-517 limits assumed): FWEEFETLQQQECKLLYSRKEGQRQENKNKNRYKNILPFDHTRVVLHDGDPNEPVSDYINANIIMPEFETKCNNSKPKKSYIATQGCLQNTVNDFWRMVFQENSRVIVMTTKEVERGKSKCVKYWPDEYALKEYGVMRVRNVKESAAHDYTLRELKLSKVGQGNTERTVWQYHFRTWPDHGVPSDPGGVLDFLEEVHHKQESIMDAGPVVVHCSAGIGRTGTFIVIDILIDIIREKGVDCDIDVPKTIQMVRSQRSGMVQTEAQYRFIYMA

PTP 1B = molecular target: T7, PTP 1B (Homo sapiens, UniProt P18031); test: PTP IC50 assay, fluorescent substrate DiFMUP; details: DiFMUP as substrate, 25° C.; read-out: PTP IC50 1B
T7 construct: made in house; host or cells: Sf-9 insect cells (pFastBac-G2T)
T7 sequence (P18031 1-435): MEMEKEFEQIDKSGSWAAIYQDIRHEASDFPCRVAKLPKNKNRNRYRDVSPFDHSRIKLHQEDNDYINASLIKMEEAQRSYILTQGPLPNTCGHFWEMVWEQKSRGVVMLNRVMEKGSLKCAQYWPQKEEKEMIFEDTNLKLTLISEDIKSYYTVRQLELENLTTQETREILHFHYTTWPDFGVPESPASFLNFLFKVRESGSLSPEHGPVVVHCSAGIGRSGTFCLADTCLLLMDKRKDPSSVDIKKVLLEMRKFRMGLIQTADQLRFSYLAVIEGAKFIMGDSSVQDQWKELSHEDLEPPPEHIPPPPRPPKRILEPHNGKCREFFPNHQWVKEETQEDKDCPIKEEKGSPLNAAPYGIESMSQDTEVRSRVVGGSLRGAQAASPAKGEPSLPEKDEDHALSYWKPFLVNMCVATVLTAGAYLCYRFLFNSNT

PTP EPSILON = molecular target: T8, PTP EPSILON (Homo sapiens, UniProt P23469); test: PTP IC50 assay, fluorescent substrate DiFMUP; details: DiFMUP as substrate, 25° C.; read-out: PTP IC50 Epilson
T8 construct: made in house; host or cells: Sf-9 insect cells (pFastBac-G2T); a pGEX 6P-1 construct also existed
T8 sequence (P23469 80-393 limits assumed): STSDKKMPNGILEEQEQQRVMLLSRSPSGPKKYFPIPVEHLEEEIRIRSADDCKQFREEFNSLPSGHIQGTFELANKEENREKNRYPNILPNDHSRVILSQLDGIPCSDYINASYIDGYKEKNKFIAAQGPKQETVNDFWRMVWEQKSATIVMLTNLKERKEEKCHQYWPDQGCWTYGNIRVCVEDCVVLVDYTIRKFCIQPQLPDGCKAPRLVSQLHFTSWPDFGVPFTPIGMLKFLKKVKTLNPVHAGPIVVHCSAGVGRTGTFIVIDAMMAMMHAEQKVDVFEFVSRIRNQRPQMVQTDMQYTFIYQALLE

T1 sequence (P23471 1667-2028 limits assumed): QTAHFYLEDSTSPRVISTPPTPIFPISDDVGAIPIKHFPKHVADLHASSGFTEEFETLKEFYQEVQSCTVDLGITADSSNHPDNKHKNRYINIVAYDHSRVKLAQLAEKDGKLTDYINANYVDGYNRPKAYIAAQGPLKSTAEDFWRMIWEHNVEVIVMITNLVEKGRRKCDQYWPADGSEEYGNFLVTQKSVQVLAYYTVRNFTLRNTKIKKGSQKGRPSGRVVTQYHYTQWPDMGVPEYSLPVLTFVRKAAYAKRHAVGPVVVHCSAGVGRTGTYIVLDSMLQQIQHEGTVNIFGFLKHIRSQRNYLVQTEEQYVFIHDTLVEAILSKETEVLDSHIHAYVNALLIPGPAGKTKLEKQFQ

O=S(=O)(c1ccc(SSc2ccc(S(=O)(=O)C(F)(F)F)cc2)cc1)C(F)(F)F [Example 7, Bis (4-trifluoromethylsulfonylphenyl) disulfide]
IC50 (PTP ZETA): > 100 µM | IC50 (PTP PEST): 22 µM | IC50 (PTP ALPHA): > 100 µM | IC50 (PTP MU): > 100 µM | IC50 (PTP DEP1): 41 µM

Cn1c(C(=O)O)cc2cc(NS(=O)(=O)C(F)(F)F)ccc21 [Example 78, 1-Methyl-5-trifluoromethanesulfonylamino-1H-indole-2-carboxylic acid]
IC50 (PTP SHP2): > 100 µM | IC50 (PTP 1B): > 100 µM | IC50 (PTP EPSILON): > 100 µM

O=C(O)c1ccc(NC(=O)c2cc3cc(NS(=O)(=O)C(F)(F)F)ccc3[nH]2)cc1 [Example 84, 4-[(5-Trifluoromethanesulfonylamino-1H-indole-2-carbonyl)-amino]-benzoic acid]
IC50 (PTP SHP2): 62 µM | IC50 (PTP 1B): > 20 µM | IC50 (PTP EPSILON): 16.1 µM

CCOC(=O)c1cccc(NC(=O)c2ccc(-c3nc4cc(S(=O)(=O)C(F)(F)F)ccc4n3CC)cc2)c1 [Example 39, 3-[4-(1-Ethyl-5-trifluoromethanesulfonyl-1H-benzoimidazol-2-yl)-benzoylamino]-benzoic acid ethyl ester]
IC50 (PTP SHP2): 1.2 µM | IC50 (PTP 1B): 3.7 µM | IC50 (PTP EPSILON): 1.5 µM

Cn1c(C(=O)Nc2cccc(C(=O)O)c2)cc2cc(NS(=O)(=O)C(F)(F)F)ccc21 [Example 82, 3-[(1-Methyl-5-trifluoromethanesulfonylamino-1H-indole-2-carbonyl)-amino]-benzoic acid]
IC50 (PTP SHP2): 87.7 µM | IC50 (PTP 1B): > 20 µM | IC50 (PTP EPSILON): 7.7 µM

Cc1cc2cc(NS(=O)(=O)C(F)(F)F)ccc2n1CC(=O)NCc1ccc(C(=O)O)cc1 [Example 87, 4-{[2-(2-Methyl-5-trifluoromethanesulfonylamino-indol-1-yl)-acetylamino]-methyl}-benzoic acid]
IC50 (PTP SHP2): 97 µM | IC50 (PTP 1B): > 20 µM | IC50 (PTP EPSILON): > 20 µM
